PMC6715681, “A high-throughput screen to identify novel synthetic lethal compounds for the treatment of E-cadherin-deficient cells” (Scientific Reports, 2019)
pEC50: −log10 of the molar value.

Experiments:
[1] = test system: MCF10A CDH1^−/− cells; assay: 11-point dose-response screen, cell titre blue (CTB) viability; format: cell-based, human; settings: for pEC50: Homo sapiens, MCF-10A
Experimental: (§1) The 11-point dose-response screen evaluated a concentration range from 0.02 µM to 20 µM for both isogenic cell lines in duplicate biological replicates (Fig. 4). One limitation to metabolism-based cellular assays is that a change in read out (fluorescence, luminescence or absorbance) may not necessarily be caused by cell death and could instead result from a cessation of proliferation due to senescence or inhibited mitochondrial respiration. For this reason, a direct measurement of cell counts using cellular imaging of nuclei stained with Hoechst 33342 was also included at the 11-point screening stage. For the CTB 11-point screen all plates had acceptable Z’ values above 0.4, with the second biological replicate having 70% above 0.6 (Fig. 4A). The Z’ values for the high-content imaging (HCI) 11-point screen plates were above 0.4 for MCF10A WT, except one plate from biological replicate two with 0.396 (Fig. 4B). However, for MCF10A CDH1^−/− HCI data, only four plates were above a Z’ of 0.4 and the mean Z’ was 0.32 compared to a mean of 0.51 for MCF10A WT. A further quality metric known as the strictly standardized mean difference (SSMD)[40] is a less conservative approach for QC and a cut-off of >3 is generally used. The mean SSMD value was 7.04 for MCF10A WT and 5.27 for MCF10A CDH1^−/− plates and indicates the MCF10A CDH1^−/− HCI data was acceptable[41]. There was a good correlation between the top hits from the HCI and CTB 11-point screening with an overlap of 31 / 40 for the top 40 compounds selected from the eventual hit selection strategies.
(§2) MCF10A WT and MCF10A CDH1^−/− cells were seeded into Corning black walled, clear bottom 384-well plates (assay plates) using a multidrop 384 reagent dispenser (Thermo Fisher Scientific) and a total volume of 50 μL per well.
(§3) As we have shown MCF10A CDH1^−/− cells have a prolonged lag to log phase growth of around 24 hours, in order to achieve a similar confluence at 72 hours post seeding MCF10A WT and MCF10A CDH1^−/− cell lines were seeded at 600 cells/well and 800 cells/well, respectively. Following seeding, plates were left for one hour at RT without stacking[46] and then centrifuged at 500 × g (RCF) for one minute. Plates were then transferred to an incubator at 37 °C and 5% CO2. At 24 hours post seeding, the MiniTrak robotic liquid handling system (Perkin Elmer) was used to transfer 352 compounds per 384-well library plate to the first 22 columns of a 384-well assay plate containing cells to achieve a 10 μM final compound concentration for the pilot, primary and single-point confirmation screens. For the 11-point dose-response screen, compounds were added to columns 1–22, but excluding edge rows A and P of the library plate to reduce edge-effects (Supplementary Fig. 2). The controls of DMSO (0.2% v/v), doxorubicin (EC80) and entinostat (EC50) were added into columns 23–24 of each assay plate (Supplementary Table 1). Cell titre blue[47] was made in-house in sterile PBS from 597 μM resazurin, 78 μM methylene blue, 1 mM potassium hexacyanoferrate (III) and 1 mM potassium hexacyanoferrate (II) trihydrate. At 69 hours post seeding, 16.7% v/v CTB was added to plates and they were incubated at 37 °C for 3 hours (Supplementary Fig. 1). At 72 hours post seeding, plates were removed from the incubator and left for 30 minutes at RT to equalise the temperature across all wells of the plates and reduce fluorescence-based edge effects before reading on an EnVision (PerkinElmer) at 550 nm excitation and 590 nm emission to quantify cell viability.
(§4) Supplementary Table 1. Killing control and SL control effective concentrations.
(§5) Doxorubicin EC80 0.3 µM 0.4 µM
(§6) MCF10A WT cells were seeded at 600/well and MCF10A CDH1-/- cells at 800/well in 384-well plates. Drugs
(§7) were added at 24 hours post seeding and CTB was used as an end-point assay. Concentrations were normalized

[2] = test system: MCF10A WT cells; assay: as above; format: cell-based, human; settings: Homo sapiens, MCF-10A, 11-point screen; for pEC50: CTB, read-out: MCF10A WT CTB EC50
Experimental: as §1, §2, §3, §4, §5, §6, §7

[3] = test system: MCF10A WT cells; assay: 11-point dose-response screen, high-content imaging (HCI) of Hoechst 33342 nuclei; format: cell-based; settings: Homo sapiens, MCF-10A, 11-point screen
Experimental: as §1
(§8) A direct measurement of cell counts using cellular imaging of nuclei was also included at the 11-point screening stage. Plates were fixed, washed and stained using an ELx405 Select deep well washer (BioTek). Media was first aspirated leaving 10 μL/well, then 4% w/v PFA was added and plates left for 15 minutes at RT. Plates were then washed twice with PBS-T, before aspirating all permeabilization buffer and adding Hoechst 33342 (1 μg/mL final) in PBS. Plates were then stored in the dark at 4 °C, until being imaged on a BD Pathway 855. Two 10x images per well were taken and cell counts enumerated using CellProfiler[48].

[4] = test system: MCF10A CDH1^−/− cells; assay: as above; format: cell-based, human; settings: 11-point screen; for pEC50: Homo sapiens, MCF-10A, HCI
Experimental: as §1, §8

[5] = test system: MCF10A WT cells; assay: Medium-throughput validation in 96-well plates, Hoechst-33342 nuclei counts (CellProfiler); format: cell-based; settings: Homo sapiens, MCF-10A, 96-well validation, at least five concentration points
Experimental: Cells were seeded into each well of Corning’s black walled, clear bottom 96-well plates with a total volume of 100 μL per well. Edge wells were excluded. Both isogenic cell lines were seeded into the same plate to mitigate plate-to-plate variation. Plates for real-time analysis were transferred to the xCELLigence platform (ACEA Biosciences, USA) or the IncuCyte FLR imaging system (Essen BioScience, USA) as previously described.
Seventy-two hours post seeding (or 48 hours post compound addition), plates were assayed for cell viability using a one-step cocktail of PFA (0.25% v/v), saponin (0.075% w/v) and Hoechst 33342 (1 μg/ml final) as described previously. CellProfiler was used to enumerate cell counts as previously described.

| Structure (SMILES) | pEC50 ([1]; 11-point screen, CTB, read-out: MCF10A CDH1^-/- CTB EC50) | pEC50 [2] | pEC50 [3] | EC50 ratio between MCF10A WT and MCF10A CDH1^−/− cells ([4]; value corresponds to the HCI EC50s of Fig. 5) | pEC50 [4] | pEC50 [5] | Differential at 20 μM ([1]; 11-point screen, MCF10A WT – MCF10A CDH1−/− POC at 20 μM) | pEC50 ([1]; 11-point screen (0.02–20 µM), CTB values, averaged between two biological replicates, Supplementary Table 2, read-out: MCF10A CDH1 -/- EC50) | activity at 20 µM ([2]; viability of WT cells at highest concentration 20 μM, read-out: MCF10A WT POC at 20 μM) |
| --- | --- | --- | --- | --- | --- | --- | --- | --- | --- |
| CC(O)CNCc1ccc(OCc2ccc(Cl)cc2Cl)cc1 (stereo not shown) [SLEC-8] | 5.12 | 4.76 | 4.99 | 5.03 fold change | 5.69 | 4.91 | – | – | – |
| COc1ccc2nc(C)cc(NCc3ccc(F)cc3)c2c1 [SLEC-11, N-(4-Fluorobenzyl)-6-methoxy-2-methylquinolin-4-amine] | – | < 4.70 | 4.84 | – | 5.13 | 4.97 | 106.45 | 5.16 | 100% |
